Laboratory results from PubChem BioAssay (NCI).
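The compound was tested at five concentrations on cells cultured in 96-well plates, with a 48-hour exposure period. The concentration for 50% growth inhibition is given as GI50. TGI marks complete inhibition of growth.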

Legend:
Experiment in all cases: inhibition of tumour cell growth, NCI panel, 48 h
[1] = system: K-562 leukemia
[2] = system: SW-620 colon
[3] = system: IGROV1 ovarian
[4] = system: OVCAR-3 ovarian
[5] = system: UACC-62 melanoma
[6] = system: ACHN renal
[7] = system: LOX IMVI melanoma
[8] = system: MOLT-4 leukemia

N#Cc1cc(S(=O)(=O)Nc2nc3ccccc3o2)c(SCc2ccccc2)cc1Cl
GI50 [1]: 38.8 µM | TGI [1]: > 100 µM | GI50 [2]: 17.9 µM | TGI [2]: 35.5 µM | GI50 [3]: 22 µM | TGI [3]: 54.8 µM | GI50 [4]: 24.2 µM | TGI [4]: 52.3 µM | GI50 [5]: 20.3 µM | TGI [5]: 52.2 µM | GI50 [6]: 32.6 µM | TGI [6]: > 100 µM | GI50 [7]: 18.7 µM | TGI [7]: 36.5 µM

O=P(O)(O)OCC1OC(n2cnc3c(NCc4ccccc4)ncnc32)C(O)C1O (stereo unspecified)
GI50 [1]: 2.52 µM | TGI [1]: > 100 µM | GI50 [2]: 1.33 µM | TGI [2]: > 73.9 µM | GI50 [3]: 3.52 µM | TGI [3]: 23 µM | GI50 [4]: 0.691 µM | TGI [4]: 2.16 µM | GI50 [8]: 0.673 µM | TGI [8]: > 100 µM | GI50 [5]: 5.02 µM | TGI [5]: > 100 µM | GI50 [6]: 1.4 µM | TGI [6]: > 69.1 µM | GI50 [7]: 0.334 µM | TGI [7]: 1.47 µM

CC(C)c1ccc(NC(=O)Cc2ccc(Nc3ncnc4cc(-c5cnn(CCN(C)C)c5)ccc34)cc2)cc1
GI50 [1]: 2.12 µM | TGI [1]: 5.94 µM | GI50 [2]: 1.18 µM | TGI [2]: 2.76 µM | GI50 [3]: 1.48 µM | TGI [3]: 3.64 µM | GI50 [4]: 1.44 µM | TGI [4]: 2.94 µM | GI50 [8]: 1.43 µM | TGI [8]: 4.73 µM | GI50 [5]: > 10 µM | TGI [5]: > 10 µM | GI50 [6]: 2.45 µM | TGI [6]: > 10 µM | GI50 [7]: 1.36 µM | TGI [7]: 3.37 µM

CCn1c(-c2nonc2N)nc2c(N3CCCC3)nccc21
GI50 [1]: 10.3 µM | TGI [1]: > 25 µM | GI50 [2]: 8.07 µM | TGI [2]: > 25 µM | GI50 [3]: 12 µM | TGI [3]: > 25 µM | GI50 [4]: 14.7 µM | TGI [4]: > 25 µM | GI50 [8]: 10.5 µM | TGI [8]: > 25 µM | GI50 [5]: 16.2 µM | TGI [5]: > 25 µM | GI50 [6]: 9.73 µM | TGI [6]: > 25 µM | GI50 [7]: 8.91 µM | TGI [7]: > 25 µM

COc1ccc(-c2cc(=O)c3c(O)c(OC)c(OC)c(OC)c3o2)cc1
TGI [1]: > 100 µM | TGI [2]: > 100 µM | TGI [3]: > 100 µM | TGI [4]: > 100 µM | TGI [8]: > 100 µM | TGI [5]: > 100 µM | TGI [6]: > 100 µM | TGI [7]: > 100 µM

CC(SCc1ccccc1)C(=O)O (stereo unspecified)
TGI [1]: > 100 µM | TGI [2]: > 100 µM | TGI [3]: > 100 µM | TGI [4]: > 100 µM | TGI [8]: > 100 µM | TGI [5]: > 100 µM | TGI [6]: > 100 µM | TGI [7]: > 100 µM

NC(Cc1ccccc1)c1nccs1 (stereo unspecified)
TGI [1]: > 100 µM | TGI [2]: > 100 µM | TGI [3]: > 100 µM | TGI [4]: > 100 µM | TGI [8]: > 100 µM | TGI [5]: > 100 µM | TGI [6]: > 100 µM | TGI [7]: > 100 µM

CC[C@H](C)[C@H](NC(=O)c1cccn1C)C(=O)N(C)[C@H](C[C@@H](OC(C)=O)c1nc(C(=O)N[C@@H](Cc2ccccc2)C[C@H](C)C(=O)OC)cs1)C(C)C
GI50 [1]: 0.177 µM | TGI [1]: > 33.3 µM | GI50 [2]: 0.205 µM | TGI [2]: > 33.3 µM | GI50 [3]: 0.228 µM | TGI [3]: > 33.3 µM | GI50 [4]: 0.0809 µM | TGI [4]: 0.272 µM | GI50 [8]: 0.429 µM | TGI [8]: > 33.3 µM | GI50 [5]: 0.0569 µM | TGI [5]: > 26 µM | GI50 [6]: 0.502 µM | TGI [6]: > 33.3 µM | GI50 [7]: 0.382 µM | TGI [7]: > 33.3 µM

CCOC(=O)C1=C(C)NC(c2ccco2)=C(C#N)C1c1cccc([N+](=O)[O-])c1 (stereo unspecified)
GI50 [1]: 0.0194 µM | GI50 [2]: 0.0101 µM | TGI [2]: 1.73 µM | GI50 [3]: 0.0157 µM | TGI [3]: 3.28 µM | GI50 [4]: 0.0147 µM | TGI [4]: 0.0373 µM | GI50 [8]: 0.0445 µM | TGI [5]: 2.27 µM | TGI [6]: 45.7 µM | GI50 [7]: 0.0587 µM | TGI [7]: 11.9 µM

O=C1NC(c2ccccc2)C2(C(=O)O)CN(C3CC3)c3cc(N4CCNCC4)c(F)cc3C2N1 (stereo unspecified)
GI50 [1]: > 100 µM | TGI [1]: > 100 µM | GI50 [2]: > 100 µM | TGI [2]: > 100 µM | GI50 [3]: > 100 µM | TGI [3]: > 100 µM | GI50 [4]: > 100 µM | TGI [4]: > 100 µM | GI50 [8]: > 100 µM | TGI [8]: > 100 µM | GI50 [5]: > 100 µM | TGI [5]: > 100 µM | GI50 [6]: > 100 µM | TGI [6]: > 100 µM | GI50 [7]: > 100 µM | TGI [7]: > 100 µM

C=C1C(=O)O[C@H]2C[C@@H]1C(=O)CC(C)CCCC(C)=CCC[C@@]2(C)O (stereo partly specified)
TGI [2]: > 25 µM | TGI [3]: > 25 µM | TGI [4]: > 25 µM | TGI [8]: > 25 µM | TGI [5]: > 25 µM | TGI [6]: > 25 µM | TGI [7]: > 25 µM

CC1=NOC(=O)/C1=C/c1ccc2c(c1)OCO2
TGI [1]: > 100 µM | TGI [2]: 60.9 µM | TGI [3]: 78.5 µM | TGI [4]: 98.9 µM | TGI [5]: 43.5 µM | TGI [6]: 38.2 µM | TGI [7]: 36.1 µM

CN(C)CCCNc1nc2ccccc2c2[nH]c3ccccc3c12
GI50 [1]: 1.64 µM | TGI [1]: 22.2 µM | GI50 [2]: 0.387 µM | TGI [2]: 7.21 µM | GI50 [3]: 1.39 µM | TGI [3]: 18.4 µM | GI50 [4]: 0.66 µM | TGI [4]: 2.23 µM | GI50 [8]: 0.276 µM | TGI [8]: 50 µM | GI50 [5]: 4.01 µM | TGI [5]: 11.9 µM | GI50 [6]: 0.703 µM | TGI [6]: 2.24 µM | GI50 [7]: 0.75 µM | TGI [7]: 1.64 µM

CS(=O)(=O)N(c1cc(-c2ccc3ncnc(Nc4ccc(F)c(Cl)c4)c3c2)cnc1Cl)S(C)(=O)=O
GI50 [1]: 2.45 µM | TGI [1]: > 100 µM | GI50 [2]: 1.71 µM | TGI [2]: > 38.4 µM | GI50 [3]: 0.196 µM | TGI [3]: 0.786 µM | GI50 [4]: 0.728 µM | TGI [4]: 4.24 µM | GI50 [8]: 1.18 µM | TGI [8]: 7.74 µM | GI50 [5]: 0.49 µM | TGI [5]: 2.93 µM | GI50 [6]: 1.11 µM | TGI [6]: 12.4 µM | GI50 [7]: 0.879 µM | TGI [7]: 4.73 µM

Cc1cc(O)c(-c2ccc([C@@H](C)CN(C)C)cc2)c2c1[nH]c(=O)c1sccc12
GI50 [1]: 0.482 µM | TGI [1]: > 60.5 µM | GI50 [2]: 0.556 µM | TGI [2]: > 61.9 µM | GI50 [3]: 0.534 µM | TGI [3]: 5.16 µM | GI50 [4]: 0.613 µM | TGI [4]: 6.17 µM | GI50 [8]: 1.69 µM | TGI [8]: 17.7 µM | GI50 [5]: 1.32 µM | TGI [5]: 4.99 µM | GI50 [6]: 0.794 µM | TGI [6]: 7.95 µM | GI50 [7]: 0.785 µM | TGI [7]: 27.5 µM

O=C(O)c1ccc(SSc2ccc(C(=O)O)cn2)nc1
TGI [1]: > 100 µM | TGI [2]: > 100 µM | TGI [3]: > 100 µM | TGI [4]: > 100 µM | TGI [8]: > 100 µM | TGI [5]: > 100 µM | TGI [6]: > 100 µM | TGI [7]: > 100 µM

CN1CCN(CCCOc2cc(O)c3c(=O)cc(-c4ccccc4)oc3c2)CC1
GI50 [1]: 6.98 µM | TGI [1]: 21.9 µM | GI50 [2]: 19.5 µM | TGI [2]: 42.4 µM | GI50 [3]: 24.9 µM | TGI [3]: 95.3 µM | GI50 [4]: 20.8 µM | TGI [4]: 54.9 µM | GI50 [8]: 17.3 µM | TGI [8]: 38.8 µM | GI50 [5]: 16.3 µM | TGI [5]: 29.9 µM | GI50 [6]: 16 µM | TGI [6]: 29.4 µM | GI50 [7]: 14.1 µM | TGI [7]: 28.4 µM
